Measurements: PubChem BioAssay AID2060493 (Molecular Pharmacology Branch, DTP, NCI, 2025)

Tested on: 616215-338-R-J1-PDC tumor spheroids, viability
Experiment: Anticancer human tumor 616215-338-R-J1-PDC patient-derived colon adenocarcinoma cell line growth inhibition [GQUAD]
Conditions: spheroids with HUVEC and MSC; for IC50: curve of first compound; for viability, T/C: stronger effect = lower value
Summary of the method: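 Viability of tumor cells grown as complex spheroids with endothelial and stromal cells, exposed to drug combinations. Top concentration at or near clinical Cmax (else 10 microM), diluted in half-log increments.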

[1] = second compound 0.0316 µM, first compound 0.0316 µM
[2] = second compound 0.0316 µM, first compound 0.316 µM
[3] = second compound 0.1 µM, first compound 0.0316 µM
[4] = second compound 0.1 µM, first compound 0.316 µM
[5] = second compound 0.316 µM, first compound 0.0316 µM
[6] = second compound 0.316 µM, first compound 0.316 µM
[7] = second compound 1 µM, first compound 0.0316 µM
[8] = second compound 1 µM, first compound 0.316 µM
[9] = second compound 3.16 µM, first compound 0.0316 µM
[10] = second compound 3.16 µM, first compound 0.316 µM
[11] = second compound 10 µM, first compound 0.0316 µM
[12] = second compound 10 µM, first compound 0.316 µM
[13] = second compound 0.0316 µM, first compound 0.1 µM
[14] = second compound 0.0316 µM, first compound 1 µM
[15] = second compound 0.0316 µM, first compound 3.16 µM
[16] = second compound 0.0316 µM, first compound 10 µM
[17] = second compound 0.1 µM, first compound 0.1 µM
[18] = second compound 0.1 µM, first compound 1 µM
[19] = second compound 0.1 µM, first compound 3.16 µM
[20] = second compound 0.1 µM, first compound 10 µM
[21] = second compound 0.316 µM, first compound 0.1 µM
[22] = second compound 0.316 µM, first compound 1 µM
[23] = second compound 0.316 µM, first compound 3.16 µM
[24] = second compound 0.316 µM, first compound 10 µM
[25] = second compound 1 µM, first compound 0.1 µM
[26] = second compound 1 µM, first compound 1 µM
[27] = second compound 1 µM, first compound 3.16 µM
[28] = second compound 1 µM, first compound 10 µM
[29] = second compound 3.16 µM, first compound 0.1 µM
[30] = second compound 3.16 µM, first compound 1 µM
[31] = second compound 3.16 µM, first compound 3.16 µM
[32] = second compound 3.16 µM, first compound 10 µM
[33] = second compound 10 µM, first compound 0.1 µM
[34] = second compound 10 µM, first compound 1 µM
[35] = second compound 10 µM, first compound 3.16 µM
[36] = second compound 10 µM, first compound 10 µM
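Note: spheroids exposed to agents for 7 days before readout.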
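Throughout, for viability, T/C: percent viability relative to DMSO vehicle control wells taken as 100%.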

## Cn1ncnc1[C@H]1c2n[nH]c(=O)c3cc(F)cc(c23)N[C@@H]1c1ccc(F)cc1 + CN(C)c1ccc(Nc2c3ccc(NC(=O)CCN4CCCC4)cc3nc3cc(NC(=O)CCN4CCCC4)ccc23)cc1
Second compound 0.0316 µM
  IC50: > 316 nM
Second compound 0.1 µM
  IC50: > 316 nM
Second compound 0.316 µM
  IC50: > 316 nM
Second compound 1 µM
  IC50: > 316 nM
Second compound 3.16 µM
  IC50: > 316 nM
Second compound 10 µM
  IC50: > 316 nM
Second compound 0.0316 µM, first compound 0.000999 µM
  viability, T/C: 103%
Second compound 0.0316 µM, first compound 0.00316 µM
  viability, T/C: 101%
Second compound 0.0316 µM, first compound 0.00999 µM
  viability, T/C: 99.7%
[1]
  viability, T/C: 104%
Second compound 0.0316 µM, first compound 0.0999 µM
  viability, T/C: 112%
[2]
  viability, T/C: 97%
Second compound 0.1 µM, first compound 0.000999 µM
  viability, T/C: 99.5%
Second compound 0.1 µM, first compound 0.00316 µM
  viability, T/C: 113%
Second compound 0.1 µM, first compound 0.00999 µM
  viability, T/C: 104%
[3]
  viability, T/C: 99.8%
Second compound 0.1 µM, first compound 0.0999 µM
  viability, T/C: 95%
[4]
  viability, T/C: 96.6%
Second compound 0.316 µM, first compound 0.000999 µM
  viability, T/C: 98.2%
Second compound 0.316 µM, first compound 0.00316 µM
  viability, T/C: 92.2%
Second compound 0.316 µM, first compound 0.00999 µM
  viability, T/C: 108%
[5]
  viability, T/C: 111%
Second compound 0.316 µM, first compound 0.0999 µM
  viability, T/C: 102%
[6]
  viability, T/C: 106%
Second compound 1 µM, first compound 0.000999 µM
  viability, T/C: 100%
Second compound 1 µM, first compound 0.00316 µM
  viability, T/C: 91.9%
Second compound 1 µM, first compound 0.00999 µM
  viability, T/C: 104%
[7]
  viability, T/C: 103%
Second compound 1 µM, first compound 0.0999 µM
  viability, T/C: 98.1%
[8]
  viability, T/C: 87.7%
Second compound 3.16 µM, first compound 0.000999 µM
  viability, T/C: 103%
Second compound 3.16 µM, first compound 0.00316 µM
  viability, T/C: 92.2%
Second compound 3.16 µM, first compound 0.00999 µM
  viability, T/C: 94.2%
[9]
  viability, T/C: 101%
Second compound 3.16 µM, first compound 0.0999 µM
  viability, T/C: 90.5%
[10]
  viability, T/C: 95.4%
Second compound 10 µM, first compound 0.000999 µM
  viability, T/C: 94.4%
Second compound 10 µM, first compound 0.00316 µM
  viability, T/C: 77.8%
Second compound 10 µM, first compound 0.00999 µM
  viability, T/C: 91.9%
[11]
  viability, T/C: 89%
Second compound 10 µM, first compound 0.0999 µM
  viability, T/C: 90.9%
[12]
  viability, T/C: 86.7%

## O=C(NO)c1cnc(N2CCN(S(=O)(=O)c3ccc4ccccc4c3)CC2)nc1 + Cc1[nH]c2ccc(F)cc2c1-c1nc2c3cccnc3c3ncccc3c2[nH]1
Second compound 0.0316 µM
  IC50: 406 nM
Second compound 0.1 µM
  IC50: 343 nM
Second compound 0.316 µM
  IC50: 466 nM
Second compound 1 µM
  IC50: 369 nM
Second compound 3.16 µM
  IC50: 324 nM
Second compound 10 µM
  IC50: 422 nM
[1]
  viability, T/C: 96.2%
[13]
  viability, T/C: 94%
[2]
  viability, T/C: 62%
[14]
  viability, T/C: 6.64%
[15]
  viability, T/C: 0.1%
[16]
  viability, T/C: 0.12%
[3]
  viability, T/C: 98.6%
[17]
  viability, T/C: 94.8%
[4]
  viability, T/C: 53.8%
[18]
  viability, T/C: 1.07%
[19]
  viability, T/C: 0.04%
[20]
  viability, T/C: 0.07%
[5]
  viability, T/C: 117%
[21]
  viability, T/C: 110%
[6]
  viability, T/C: 74.5%
[22]
  viability, T/C: 1.02%
[23]
  viability, T/C: 0.02%
[24]
  viability, T/C: 0.05%
[7]
  viability, T/C: 103%
[25]
  viability, T/C: 94.6%
[8]
  viability, T/C: 57.6%
[26]
  viability, T/C: 4.76%
[27]
  viability, T/C: 0.03%
[28]
  viability, T/C: 0.06%
[9]
  viability, T/C: 104%
[29]
  viability, T/C: 96.9%
[10]
  viability, T/C: 51.4%
[30]
  viability, T/C: 2.81%
[31]
  viability, T/C: 0.06%
[32]
  viability, T/C: 0.08%
[11]
  viability, T/C: 103%
[33]
  viability, T/C: 94.6%
[12]
  viability, T/C: 65.7%
[34]
  viability, T/C: 3.03%
[35]
  viability, T/C: 0.15%
[36]
  viability, T/C: 0.63%

## CC(C)(O)C1CCC(Nc2ccc3ncc(-c4cccc(C(F)(F)F)c4)n3n2)CC1 (stereo unspecified) + Cc1[nH]c2ccc(F)cc2c1-c1nc2c3cccnc3c3ncccc3c2[nH]1
Second compound 0.0316 µM
  IC50: 610 nM
Second compound 0.1 µM
  IC50: 596 nM
Second compound 0.316 µM
  IC50: 591 nM
Second compound 1 µM
  IC50: 644 nM
Second compound 3.16 µM
  IC50: 584 nM
Second compound 10 µM
  IC50: 566 nM
[1]
  viability, T/C: 99.1%
[13]
  viability, T/C: 103%
[2]
  viability, T/C: 103%
[14]
  viability, T/C: 11.2%
[15]
  viability, T/C: 0.5%
[16]
  viability, T/C: 1.09%
[3]
  viability, T/C: 93.7%
[17]
  viability, T/C: 109%
[4]
  viability, T/C: 94.3%
[18]
  viability, T/C: 13.8%
[19]
  viability, T/C: 0.24%
[20]
  viability, T/C: 2.5%
[5]
  viability, T/C: 92%
[21]
  viability, T/C: 97%
[6]
  viability, T/C: 97.6%
[22]
  viability, T/C: 11.7%
[23]
  viability, T/C: 2.23%
[24]
  viability, T/C: 1.14%
[7]
  viability, T/C: 97%
[25]
  viability, T/C: 89.9%
[8]
  viability, T/C: 91.6%
[26]
  viability, T/C: 24.3%
[27]
  viability, T/C: 0.55%
[28]
  viability, T/C: 1.33%
[9]
  viability, T/C: 98.8%
[29]
  viability, T/C: 103%
[10]
  viability, T/C: 95.2%
[30]
  viability, T/C: 10.4%
[31]
  viability, T/C: 0.45%
[32]
  viability, T/C: 0.48%
[11]
  viability, T/C: 90.1%
[33]
  viability, T/C: 94.4%
[12]
  viability, T/C: 93.2%
[34]
  viability, T/C: 8.43%
[35]
  viability, T/C: 0.77%
[36]
  viability, T/C: 0.56%
